pKi: −log10 of the molar value.
Key:
Assay type in all cases: biochemical
JAK1 = target: T1, JAK1 (Homo sapiens, UniProt P23458); assay: JAK1 inhibition (Table 4); conditions: read-out: JAK1 Ki
T1 construct: made in house; host or cells: SF9 insect cells (baculovirus)

TYK2 = target: T2, TYK2 (Homo sapiens, UniProt P29597); assay: TYK2 inhibition (Table 4)
T2 construct: made in house; host or cells: SF9 insect cells (baculovirus)
T2 sequence (P29597 873-1187): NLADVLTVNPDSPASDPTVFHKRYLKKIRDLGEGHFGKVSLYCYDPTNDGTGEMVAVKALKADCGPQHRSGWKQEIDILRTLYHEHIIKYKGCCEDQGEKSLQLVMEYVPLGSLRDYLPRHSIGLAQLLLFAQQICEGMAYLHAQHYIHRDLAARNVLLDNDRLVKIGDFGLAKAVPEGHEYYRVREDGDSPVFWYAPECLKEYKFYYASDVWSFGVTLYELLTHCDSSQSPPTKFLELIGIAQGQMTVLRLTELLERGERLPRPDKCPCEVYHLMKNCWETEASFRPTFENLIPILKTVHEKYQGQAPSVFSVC

JAK2 = target: T3, JAK2 (Homo sapiens, UniProt O60674); assay: JAK2 inhibition (Table 4); conditions: read-out: JAK2 Ki
T3 construct: made in house; host or cells: SF9 insect cells (baculovirus)

JAK3 = target: T4, JAK3 (Homo sapiens, UniProt P52333); assay: JAK3 inhibition (Table 4); conditions: read-out: JAK3 Ki
T4 construct: made in house; host or cells: SF9 insect cells (baculovirus)
T4 sequence (P52333 783-1124): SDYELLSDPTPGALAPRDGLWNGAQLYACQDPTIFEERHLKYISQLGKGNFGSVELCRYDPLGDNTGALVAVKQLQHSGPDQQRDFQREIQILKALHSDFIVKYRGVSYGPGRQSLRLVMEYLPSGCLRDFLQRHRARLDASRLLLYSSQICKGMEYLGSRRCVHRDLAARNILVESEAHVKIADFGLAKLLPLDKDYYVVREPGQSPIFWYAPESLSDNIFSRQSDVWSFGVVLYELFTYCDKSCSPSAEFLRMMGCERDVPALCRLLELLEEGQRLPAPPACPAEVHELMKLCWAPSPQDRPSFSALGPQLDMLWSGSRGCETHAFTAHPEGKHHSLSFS

T3 sequence (O60674 812-1132): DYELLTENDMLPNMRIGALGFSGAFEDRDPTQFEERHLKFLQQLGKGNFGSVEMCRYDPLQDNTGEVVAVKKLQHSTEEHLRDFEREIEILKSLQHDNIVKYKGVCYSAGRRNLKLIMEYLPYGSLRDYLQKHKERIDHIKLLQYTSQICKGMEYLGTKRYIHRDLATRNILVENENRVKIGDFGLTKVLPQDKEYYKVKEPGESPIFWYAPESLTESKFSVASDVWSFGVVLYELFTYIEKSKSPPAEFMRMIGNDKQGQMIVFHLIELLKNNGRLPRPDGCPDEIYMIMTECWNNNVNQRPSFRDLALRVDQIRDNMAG
T1 sequence (P23458 852-1154): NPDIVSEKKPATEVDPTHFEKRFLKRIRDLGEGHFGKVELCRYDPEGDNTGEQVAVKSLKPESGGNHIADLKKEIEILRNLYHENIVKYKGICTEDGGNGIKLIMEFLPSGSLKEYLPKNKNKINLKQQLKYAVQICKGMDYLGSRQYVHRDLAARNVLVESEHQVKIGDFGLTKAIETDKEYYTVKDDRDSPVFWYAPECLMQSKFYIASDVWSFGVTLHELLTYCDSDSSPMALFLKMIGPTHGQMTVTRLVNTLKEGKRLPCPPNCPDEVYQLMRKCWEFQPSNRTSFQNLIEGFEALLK

SMILES | pKi (JAK1) | pKi (TYK2) | pKi (JAK2) | pKi (JAK3)
Cc1nc2cnc3[nH]ccc3c2n1C1CC2CCC1C2 (stereo not drawn) [Example 121, 1-Bicyclo[2.2.1]hept-2-yl-2-methyl-1,6-dihydro-1,2,3,5,6-tetraaza-as-indacene] | 9.00 | 8.29 | 8.56 | 8.03
CC1CNCCC1n1cnc2cnc3[nH]ccc3c21 (racemic) [Example 306, 1-(3-Methyl-piperidin-4-yl)-1,6-dihydro-1,3,5,6-tetraaza-as-indacene] | 7.46 | 6.35 | 6.81 | 6.33
OCCc1nc2cnc3[nH]ccc3c2n1[C@@H]1CCCN(Cc2ccccc2)C1 [Example 15, 2-[1-((R)-1-Benzyl-piperidin-3-yl)-1,6-dihydro-1,2,3,5,6-tetraaza-as-indacen-2-yl]ethanol] | 6.99 | 6.35 | 7.06 | 6.11
COCCOC(=O)N[C@H]1CC[C@H](n2cnc3cnc4[nH]ccc4c32)CC1 [Example 356, [4-(6H-1,3,5,6-Tetraaza-as-indacen-1-yl)-cyclohexyl]-carbamic acid 2-methoxy-ethyl ester] | 7.97 | 6.72 | 7.54 | 6.68
C[C@]1(O)CC[C@@H](n2nnc3cnc4[nH]ccc4c32)CC1 [Example 714, Cis-1-Methyl-4-(6H-1,2,3,5,6-pentaaza-as-indacen-1-yl)-cyclohexanol] | 8.28 | 7.54 | 8.00 | 6.98
COCC(=O)NC1CCCC(n2cnc3cnc4[nH]ccc4c32)C1 (single isomer, unassigned) [Example 482, 2-Methoxy-N-[3-(6H-1,3,5,6-tetraaza-as-indacen-1-yl)-cyclohexyl]-acetamide] | 7.25 | 6.07 | 7.01 | 6.82
CC(O)CN1CCC(n2c(C(C)O)nc3cnc4[nH]ccc4c32)CC1 (stereo not drawn) [Example 934, 1-{4-[2-(1-Hydroxy-ethyl)-6H-1,3,5,6-tetraaza-as-indacen-1-yl]-piperidin-1-yl}-propan-2-ol] | 7.89 | 6.33 | 6.17 | 6.26
Cc1nc2cnc3[nH]ccc3c2n1[C@H]1CC[C@H](NC(C)CC#N)CC1 (stereo partly drawn) [Example 590, Trans 3-[4-(2-methyl-6H-1,2,3,5,6-tetraaza-as-indacen-1-yl)-cyclohexylamino]-butyronitrile] | 8.56 | 7.37 | 7.87 | 7.77
Cc1nc2cnc3[nH]ccc3c2n1C1CCC(NC(=O)N(C)CC(F)F)CC1 (stereo not drawn) [Example 750, 1-(2,2-difluoro-ethyl)-1-methyl-3-[4-(2-methyl-6H-1,3,5,6-tetraaza-as-indacen-1-yl)-cyclohexyl]-urea] | 8.32 | 6.89 | 7.66 | 7.75
CC(C)(C)OC(=O)N1CC(n2cnc3cnc4[nH]ccc4c32)C1 [Example 3, 3-(6H-1,2,3,5,6-Tetraaza-as-indacen-1-yl)-azetidine-1-carboxylic acid tert-butyl ester] | 6.46 | 5.78 | 6.72 | 6.04
CC(C)NC(=O)[C@H]1CC[C@H](n2nnc3cnc4[nH]ccc4c32)CC1 [Example 165, Trans 4-(6H-1,2,3,5,6-Pentaaza-as-indacen-1-yl)-cyclohexanecarboxylic acid isopropylamide] | 7.31 | 6.26 | 6.75 | 6.10
O=C(NC1CCC(n2cnc3cnc4[nH]ccc4c32)CC1)c1cccnc1 (stereo not drawn) [Example 884, N-[4-(6H-1,3,5,6-Tetraaza-as-indacen-1-yl)-cyclohexyl]-nicotinamide] | 8.29 | 7.36 | 8.19 | 7.06
C[C@@H](O)c1nc2cnc3[nH]ccc3c2n1[C@H]1CCN(Cc2cnco2)C[C@H]1F [Example 704, 1-[1-(3-Fluoro-1-oxazol-5-ylmethyl-piperidin-4-yl)-1,6-dihydro-1,2,3,5,6-tetraaza-as-indacen-2-yl]-ethanol] | 8.61 | 6.86 | 7.25 | 7.89
c1cc2c(ncc3ncn(C4CCCNCC4)c32)[nH]1 (racemic) [Example 489, 1-Azepan-4-yl-1,6-dihydro-1,3,5,6-tetraaza-as-indacene] | 7.47 | 6.22 | 6.50 | 6.49
OCc1nc2cnc3[nH]ccc3c2n1C1CCCOC1 (single isomer, unassigned) [Example 464, [1-(Tetrahydro-pyran-3-yl)-1,6-dihydro-1,3,5,6-tetraaza-as-indacen-2-yl]-methanol] | 7.24 | 6.73 | 6.65 | 6.39
N#Cc1nc2cnc3[nH]ccc3c2n1C1CCN(Cc2cccnc2)CC1 [Example 290, 1-(1-Pyridin-3-ylmethyl-piperidin-4-yl)-1,6-dihydro-1,3,5,6-tetraaza-as-indacene-2-carbonitrile] | 8.40 | 6.69 | 8.31 | 8.20

Continued, values first:

pKi (JAK1) | pKi (TYK2) | pKi (JAK2) | pKi (JAK3) | SMILES
7.19 | 5.71 | 6.73 | 5.66 | O=C(CN1CCOCC1)N1CCC(n2cnc3cnc4[nH]ccc4c32)CC1 [Example 77, 2-Morpholin-4-yl-1-[4-(6H-1,3,5,6-tetraaza-as-indacen-1-yl)-piperidin-1-yl]ethanone]
6.78 | 6.02 | 6.36 | 6.81 | CCC(COC)n1c(C(C)O)nc2cnc3[nH]ccc3c21 (single isomer, unassigned) [Example 182, 1-[1-(1-Methoxymethyl-propyl)-1,6-dihydro-1,2,3,5,6-tetraaza-as-indacen-2-yl]-ethanol]
9.02 | 8.05 | 7.50 | 7.59 | OC(c1nc2cnc3[nH]ccc3c2n1C1CCCCC1)C1CC1 (racemic) [Example 940, (1-Cyclohexyl-1,6-dihydro-1,3,5,6-tetraaza-as-indacen-2-yl)-cyclopropyl-methanol]
7.52 | 6.65 | 6.68 | 6.63 | NC(=O)Cc1nc2cnc3[nH]ccc3c2n1C1CCCOC1 (racemic) [Example 960, 2-[1-(Tetrahydro-pyran-3-yl)-1,6-dihydro-1,3,5,6-tetraaza-as-indacen-2-yl]-acetamide]
7.85 | 7.15 | 7.43 | 7.80 | O[C@@H]1CC[C@@H](n2cnc3cnc4[nH]ccc4c32)C1 [Example 711, (1R,3R)-3-(6H-1,2,3,5,6-Tetraaza-as-indacen-1-yl)-cyclopentanol]
8.92 | 8.75 | 8.16 | 7.94 | OCc1nc2cnc3[nH]ccc3c2n1C1CCCCC1 [Example 675, (1-Cyclohexyl-1,6-dihydro-1,2,3,5,6-tetraaza-as-indacen-2-yl)-methanol]
8.50 | 7.86 | 8.33 | 7.40 | O=C1CCC2(CCC(n3cnc4cnc5[nH]ccc5c43)CC2)N1 (stereo not drawn) [Example 152, 8-(6H-1,2,3,5,6-Tetraaza-as-indacen-1-yl)-1-aza-spiro[4.5]decan-2-one]
7.39 | 6.10 | 6.77 | 6.63 | CC(C)(C)OC(=O)NC1CCCC(n2cnc3cnc4[nH]ccc4c32)C1 (single isomer, unassigned) [Example 477, [3-(6H-1,3,5,6-Tetraaza-as-indacen-1-yl)-cyclohexyl]-carbamic acid tert-butyl ester]
8.25 | 7.09 | 7.99 | 7.95 | CCCc1nc2cnc3[nH]ccc3c2n1C1CCN(CCC#N)CC1 [Example 120, 3-[4-(2-Propyl-6H-1,2,3,5,6-tetraaza-as-indacen-1-yl)-piperidin-1-yl]-propionitrile]
7.73 | 6.54 | 7.12 | 6.53 | CC1(n2cnc3cnc4[nH]ccc4c32)CCN(S(=O)(=O)c2cccnc2)CC1 [Example 753, 1-[4-Methyl-1-(pyridine-3-sulfonyl)-piperidin-4-yl]-1,6-dihydro-1,3,5,6-tetraaza-as-indacene]
7.69 | 7.14 | 7.35 | 6.19 | Cc1nc2cnc3[nH]ccc3c2n1-c1ccc(C#N)cc1 [Example 183, 4-(2-Methyl-6H-1,2,3,5,6-tetraaza-as-indacen-1-yl)-benzonitrile]
7.02 | 6.19 | 6.60 | 5.83 | OCCN1CC[C@@H](n2cnc3cnc4[nH]ccc4c32)C1 [Example 184, 2-[(R)-3-(6H-1,2,3,5,6-Tetraaza-as-indacen-1-yl)-pyrrolidin-1-yl]-ethanol]
7.27 | 6.10 | 6.82 | 6.53 | O=C1CC(n2cnc3cnc4[nH]ccc4c32)CCN1 (racemic) [Example 133, 4-(6H-1,2,3,5,6-Tetraaza-as-indacen-1-yl)-piperidin-2-one]
7.95 | 7.11 | 7.41 | 7.10 | OC1CCC(n2cnc3cnc4[nH]ccc4c32)C1 (stereo not drawn) [Example 708, 3-(6H-1,2,3,5,6-Tetraaza-as-indacen-1-yl)-cyclopentanol]
